The target of experiment [1] is IL-17A(FLAG-tagged): IL-17RA(His-tagged) (Homo sapiens, UniProt Q16552, K93Q). The experiment in a line: IL-17A(FLAG-tagged): IL-17RA(His-tagged) binding disruption Eu-HTRF assay. To be noted: class of the average IC50 where tested more than once. From the text:
IL-17A(FLAG-tagged): IL-17RA(His-tagged) binding disruption Eu-HTRF assay An antibody directed against the FLAG tag of IL-17A (SEQ ID NO: 1) is labeled with the HTRF donor chromophore (Europium-cryptate). IL-17A is present as a dimer that is “locked into” this quaternary structure due to the formation of loop-spanning intramolecular disulfide bridges. The construct of IL-17RA used in the assay excludes the […] portion of the receptor and is fused to a C-terminal 10×His tag (SEQ ID NO:2). An antibody directed against the His tag of the IL-17RA chimera is labeled with the HTRF acceptor chromophore (“D2”). The fluorescence-resonance energy transfer (FRET) depends on the vicinity of the donor chromophore to the acceptor, and interruption of the binding between the IL-17A and IL-17RA causes the reduction/loss of FRET. Therefore, this assay allows to evaluate the compound effect on the binding IL-17A and IL-17RA by monitoring the fluorescence intensity of donor vs acceptor. The assay is run as described below.
40 nl of 2-fold serial diluted compound solution for total 22 dilution points is added into each well of a 1536-well, white, low-volume, non-binding plate (Greiner #782904), then 2 μl of FLAG tagged IL-17A at 2× final concentration (1 μM) in solution of PBS+0.01% Triton-X100 is added to each well. The assay plate is briefly centrifuged then incubated for 1 h at rt. A mixed solution is prepared containing 2×5 nM 10HIS×IL-17RA, 2×2.5 nM Eu-anti-FLAG (CISBIO), 2×5 nM D2-anti-HIS (CISBIO) in PBS+0.01% Triton-X100+200 mM Potassium Fluoride (Sigma 60238) and 2 μl of mix is added to each well of the assay plate. The plate is briefly centrifuged then incubated for 2 h at rt. The HTRF intensities at the wavelength of donor (615 nm) and acceptor (665 nm) are measured using BMG Pherastar. The ratio between intensities at two wavelengths is calculated and plotted against the compound concentration and the data is fitted to a one-site competition model to yield IC50 of the compound.
A general note: TR-FRET usually uses a lanthanide donor and a delayed reading to cut background.

For experiment [2], the system named is IL-17A-induced G-CSF production in human normal keratinocyte (NHK). The experiment is described as follows: NHK assay: IL-17A-induced G-CSF production in normal human keratinocytes. To be noted: Homo sapiens, Keratinocyte, 24 h, IL-17A 5 ng/mL, class of the average IC50 where tested more than once. The class given is cell-based. How it is done: IL-17A acts directly on keratinocytes through binding to dimeric receptor IL-17RA/RC and drives the production of a number of inflammatory mediators known to be elevated in psoriasis lesional tissue. IL-17A small molecule inhibitors that block the IL-17A to interact with IL-17R would inhibit the IL-17A signaling in its targeted cells such as keratinocytes. The compound functional activity is evaluated for its impact on IL-17A-induced G-CSF production in human normal keratinocyte (NHK).
Adult normal human keratinocytes are cultured in keratinocyte growth medium (Lonza) in a flask till reaching ~90% confluence, then cells are transferred to a 384-well plate at density of 3000-4000 cell/well. Recombinant human IL-17A (Gibco PHC9174) is pre-incubated with titrated compound or DMSO for 1 h at rt then added to the cell culture plate. The final concentration of IL-17A is 5 ng/mL and DMSO is 0.2%, in the culture containing 5% FBS. Cells are cultured/treated for 24 h at 37° C. Supernatants are collected and G-CSF production is measured through HTRF technology using Human G-CSF Kit (CisBio). G-CSF concentration was extrapolated from the standard curve and IC50 is determined using GraphPad Prism. Cell viability is also evaluated using CellTiter-Glo kit (Promega) and effect of compound on cell viability is compared to DMSO control.

The IC50 is the concentration that inhibits the measured activity by half.

UniProt Q16552, sequence (Q16552 with tags, fused parts or gaps K93Q): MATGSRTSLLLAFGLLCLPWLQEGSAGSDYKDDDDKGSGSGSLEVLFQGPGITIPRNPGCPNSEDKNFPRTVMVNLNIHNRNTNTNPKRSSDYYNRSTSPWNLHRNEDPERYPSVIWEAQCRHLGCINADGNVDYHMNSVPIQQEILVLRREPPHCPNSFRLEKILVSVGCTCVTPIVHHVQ

In the case of `CC1(C(=O)c2cnn3cc([C@@H](NC(=O)c4nonc4C4CC4)C4CCC(F)(F)CC4)nc3c2)C[C@@H](C(F)(F)F)NC1=O` (mixture of isomers) [Example 102, 4-Cyclopropyl-N—[(S)-(4,4-difluorocyclohexyl)-[7-[(3RS,5S)-3-methyl-2-oxo-5-(trifluoromethyl)pyrrolidine-3-carbonyl]imidazo[1,2-b]pyridazin-2-yl]methyl]-1,2,5-oxadiazole-3-carboxamide], the IC50 in experiment [1] and in experiment [2] was < 0.4 µM in each case. As to `O=C(N[C@H](c1cn2ncc(C[C@]34CCC[C@@H](C3)NC4=O)cc2n1)C1CCC(F)(F)CC1)c1nonc1C1CC1` (relative stereo) [Example 12, 4-Cyclopropyl-N—[(S)-(4,4-difluorocyclohexyl)-[7-[[(1S*5S*)-7-oxo-6-azabicyclo[3.2.1]octan-1-yl]methyl]imidazo[1,2-b]pyridazin-2-yl]methyl]-1,2,5-oxadiazole-3-carboxamide], the figures for the IC50 in experiment [1] and in experiment [2] were > 4 µM and 0.4 to 4 µM, respectively.

On to `CC[C@@H](c1cnn2cc([C@@H](NC(=O)c3nonc3C3CC3)C3CCC(F)(F)CC3)nc2c1)[C@@H]1C[C@@H](C(F)(F)F)NC1=O` (relative stereo) [Example 20, 4-Cyclopropyl-N—((S)-(4,4-difluorocyclohexyl)(7-((R*)-1-((3S*,5S)-2-oxo-5-(trifluoromethyl)pyrrolidin-3-yl)propyl)imidazo[1,2-b]pyridazin-2-yl)methyl)-1,2,5-oxadiazole-3-carboxamide], for which the IC50 in experiment [1] and in experiment [2] was 0.4 to 4 µM in each case.

Take `O=C(N[C@H](c1cn2ncc([C@@H]3C[C@@]34C[C@@H](C(F)(F)F)NC4=O)cc2n1)C1CCC(F)(F)CC1)c1nonc1C1CC1` (relative stereo) [Example 38, 4-Cyclopropyl-N—((S)-(4,4-difluorocyclohexyl)(7-((1S*,3R*,6S)-4-oxo-6-(trifluoromethyl)-5-azaspiro[2.4]heptan-1-yl)imidazo[1,2-b]pyridazin-2-yl)methyl)-1,2,5-oxadiazole-3-carboxamide]: the IC50 was < 0.4 µM in experiment [1] and 0.4 to 4 µM in experiment [2]. `O=C(N[C@H](c1cn2ncc([C@@H]3C[C@]34C[C@@H](C(F)(F)F)NC4=O)cc2n1)C1CCC(F)(F)CC1)c1nonc1C1CC1` (relative stereo) [Example 39, 4-Cyclopropyl-N—((S)-(4,4-difluorocyclohexyl)(7-((S*,3S*,6S)-4-oxo-6-(trifluoromethyl)-5-azaspiro[2.4]heptan-1-yl)imidazo[1,2-b]pyridazin-2-yl)methyl)-1,2,5-oxadiazole-3-carboxamide]: the IC50 in experiment [1] and in experiment [2] was > 4 µM each time. Turning to `O=C(N[C@H](c1cn2ncc([C@H]3C[C@@]34C[C@@H](C(F)(F)F)NC4=O)cc2n1)C1CCC(F)(F)CC1)c1nonc1C1CC1` (relative stereo) [Example 41, 4-Cyclopropyl-N—((S)-(4,4-difluorocyclohexyl)(7-((1R*,3R*,6S)-4-oxo-6-(trifluoromethyl)-5-azaspiro[2.4]heptan-1-yl)imidazo[1,2-b]pyridazin-2-yl)methyl)-1,2,5-oxadiazole-3-carboxamide], the IC50 in experiment [1] and in experiment [2] was > 4 µM throughout. As to `O=C(N[C@H](c1cn2ncc(C[C@H]3C(=O)NCC[C@H]3C(F)(F)F)cc2n1)C1CCC(F)(F)CC1)c1nonc1C1CC1` (relative stereo) [Example 44, 4-Cyclopropyl-N—((S)-(4,4-difluorocyclohexyl)(7-(((3R*,4R*)-2-oxo-4-(trifluoromethyl)piperidin-3-yl)methyl)imidazo[1,2-b]pyridazin-2-yl)methyl)-1,2,5-oxadiazole-3-carboxamide], the results for the 50% inhibitory concentration (IC50) in experiment [1] and in experiment [2] were 0.4 to 4 µM and > 4 µM, respectively.

On to `O=C(N[C@H](c1cn2ncc(C[C@@H]3C(=O)NCC[C@@H]3C(F)(F)F)cc2n1)C1CCC(F)(F)CC1)c1nonc1C1CC1` (relative stereo) [Example 45, 4-Cyclopropyl-N—((S)-(4,4-difluorocyclohexyl)(7-(((3S*,4S*)-2-oxo-4-(trifluoromethyl)piperidin-3-yl)methyl)imidazo[1,2-b]pyridazin-2-yl)methyl)-1,2,5-oxadiazole-3-carboxamide], for which the half-maximal inhibitory concentration (IC50) in experiment [1] was 0.4 to 4 µM; in experiment [2] it was > 4 µM. For `Cc1nonc1C(=O)N[C@H](c1cn2ncc(C[C@H]3CC[C@H](C(F)(F)F)NC3=O)cc2n1)C1CCC(F)(F)CC1` (relative stereo) [Example 46, N—((S)-(4,4-difluorocyclohexyl)(7-(((3R*,6R*)-2-oxo-6-(trifluoromethyl)piperidin-3-yl)methyl)imidazo[1,2-b]pyridazin-2-yl)methyl)-4-methyl-1,2,5-oxadiazole-3-carboxamide], in that order: > 4 µM and > 4 µM.

`Cc1nonc1C(=O)N[C@H](c1cn2ncc(C[C@H]3CC[C@@H](C(F)(F)F)NC3=O)cc2n1)C1CCC(F)(F)CC1` (relative stereo) [Example 47, N—((S)-(4,4-difluorocyclohexyl)7-(((3R*,6S*)-2-oxo-6-(trifluoromethyl)piperidin-3-yl)methyl)imidazo[1,2-b]pyridazin-2-yl)methyl)-4-methyl-1,2,5-oxadiazole-3-carboxamide]: the IC50 in experiment [1] is < 0.4 µM; in experiment [2] it was 0.4 to 4 µM. For `CC[C@H]1C[C@H](Cc2cnn3cc([C@@H](NC(=O)c4nonc4C4CC4)C4CCC(F)(F)CC4)nc3c2)C(=O)N1` (relative stereo) [Example 91, 4-Cyclopropyl-N—[(S)-(4,4-difluorocyclohexyl)-[7-[[(3S*,5S*)-5-ethyl-2-oxo-pyrrolidin-3-yl]methyl]imidazo[1,2-b]pyridazin-2-yl]methyl]-1,2,5-oxadiazole-3-carboxamide], the IC50 in experiment [1] was 0.4 to 4 µM. Consider `CC[C@H]1C[C@@H](Cc2cnn3cc([C@@H](NC(=O)c4nonc4C4CC4)C4CCC(F)(F)CC4)nc3c2)C(=O)N1` (relative stereo) [Example 92, 4-Cyclopropyl-N—[(S)-(4,4-difluorocyclohexyl)-[7-[[(3R*,5S*)-5-ethyl-2-oxo-pyrrolidin-3-yl]methyl]imidazo[1,2-b]pyridazin-2-yl]methyl]-1,2,5-oxadiazole-3-carboxamide], for which the IC50 in experiment [1] was > 4 µM. In turn, `O=C(N[C@H](c1cn2ncc(CC3CCCNC3=O)cc2n1)C1CCC(F)(F)CC1)c1nonc1C1CC1` (single isomer, unassigned) [Example 23, 4-Cyclopropyl-N—[(S)-(4,4-difluorocyclohexyl)-[7-[[(3R*)-2-oxo-3-piperidyl]methyl]imidazo[1,2-b]pyridazin-2-yl]methyl]-1,2,5-oxadiazole-3-carboxamide] displayed an IC50 in experiment [1] of 0.4 to 4 µM. Same read-out and setting: the result for `O=C(N[C@H](c1cn2ncc(CC3CCCNC3=O)cc2n1)C1CCC(F)(F)CC1)c1nonc1C1CC1` (single isomer, unassigned) [Example 24, 4-Cyclopropyl-N—[(S)-(4,4-difluorocyclohexyl)-[7-[[(3S*)-2-oxo-3-piperidyl]methyl]imidazo[1,2-b]pyridazin-2-yl]methyl]-1,2,5-oxadiazole-3-carboxamide] reads 0.4 to 4 µM.

(Values after patent US20260258048A1, “LACTAM-CONTAINING IMIDAZOPYRIDAZINE IL-17 INHIBITOR COMPOUNDS” (Janssen Pharmaceutica NV, priority 2023, published 2026).)
